{"source": "paper PMC10487658", "about": "“Identification and Characterization of RK22, a Novel Antimicrobial Peptide from Hirudinaria manillensis against Methicillin Resistant Staphylococcus aureus” (International Journal of Molecular Sciences, 2023)", "key": {"P. aeruginosa, ATCC9027": {"tested_on": "P. aeruginosa, ATCC9027", "assay_type": "cell-based, Pseudomonas aeruginosa", "settings": "RPMI 1640, 37 °C, 12–16 h, absorbance at 600 nm"}, "E. coli, ATCC25922": {"tested_on": "E. coli, ATCC25922", "assay_type": "cell-based, Escherichia coli", "settings": "RPMI 1640, 37 °C, 12–16 h, absorbance at 600 nm"}, "S. aureus ATCC6538 [1]": {"tested_on": "S. aureus ATCC6538", "assay": "Bacterial killing kinetic assay", "assay_type": "cell-based, Staphylococcus aureus", "settings": "RPMI 1640, 37 °C, CFU count, 3 individual experiments", "procedure": "(§1) The bactericidal killing kinetic assay was performed according to a previous study with minor modifications. Firstly, S. aureus ATCC6538 or methicillin-resistant S. aureus MRSA-Z was diluted to 2 × 10^5 CFU/mL using RPMI 1640 medium. Equal volumes of either RK22 (final concentration 1, 5, 10 × MIC) or vancomycin (Macklin, Shanghai, China) (final concentration 1, 5, 10 × MIC) solutions were added to the bacterial suspension. The mixtures were then incubated at 37 °C for different times (0, 15, 30, 60, 180, and 360 min). At each time point, the bacterial solution was inoculated on LB agar culture medium, and colony forming units (CFUs) were counted after 24 h."}, "MRSA-Z [2]": {"tested_on": "MRSA-Z", "assay": "Bacterial killing kinetic assay", "assay_type": "cell-based, Staphylococcus aureus", "settings": "10 × MIC, 6 h, RPMI 1640, 37 °C, CFU count, 3 individual experiments", "procedure": "as §1"}, "S. aureus ATCC6538 [3]": {"tested_on": "S. aureus ATCC6538", "assay": "S. aureus-induced bacteremia model", "assay_type": "in vivo, mouse", "settings": "RK22 8 mg/kg, vancomycin 4 mg/kg ip 1 h after infection, 4 h after administration", "procedure": "(§2) S. aureus ATCC6538 or methicillin-resistant S. aureus MRSA-Z were diluted to a concentration of 1 × 10^9 CFU/mL with normal saline. Male C57BL/6 mice (6–8 weeks of age) were randomly divided into seven groups of 10–12 mice per group. S. aureus ATCC6538 (100 μL) or methicillin-resistant S. aureus MRSA-Z (200 μL) were injected intravenously. At the end of 1 h, mice received an intraperitoneal injection of normal saline, vancomycin (dissolved in saline with the concentration of 2 and 4 mg/kg), or RK22 (dissolved in saline with the concentration of 2, 4, and 8 mg/kg). At 4 h post-administration, the mice were sacrificed, and blood and lung samples were collected. Lungs were then weighed and placed in 1 mL of PBS and homogenized on ice with a tissue grinder. Homogenates and clarified blood were plated in LB agar culture medium and CFUs were counted after 24 h. For histopathological analysis, sections of lung were fixed with 4% paraformaldehyde, embedded in paraffin wax, and stained with H&E."}, "MRSA-Z [4]": {"tested_on": "MRSA-Z", "assay": "S. aureus-induced bacteremia model", "assay_type": "in vivo, mouse", "settings": "RK22 8 mg/kg, vancomycin 4 mg/kg ip 1 h after infection, 4 h after administration", "procedure": "as §2"}, "[5]": {"tested_on": "SA220823 (clinically isolated S. aureus)", "assay": "microbe, parasite or virus in culture", "assay_type": "cell-based, Staphylococcus aureus", "settings": "Staphylococcus aureus", "procedure": "(§3) The bacterial strains used in this study included Pseudomonas aeruginosa (P. aeruginosa, ATCC27853), Acinetobacter baumannii (A. baumannii, ATCC19606), Escherichia coli (E. coli, ATCC8739), and S. aureus (ATCC6538, two clinically isolated strains (SA220823 and SA15772)), and three clinically isolated methicillin-resistant strains (MRSA-Z, MRSA11, and MRSA22). All strains were grown in Luria-Bertani (LB) broth.\n(§4) The minimum inhibitory concentration (MIC) for all strains was determined using the […] assay based on a previous study with minor modifications. Initially, strains in the exponential phase were diluted to a concentration of 2 × 10^5 CFU/mL using RPMI 1640 medium (Corning, New York, NY, USA). Next, 100 μL of the bacterial suspension was mixed with 100 μL of the sample solution (final concentration 0–200 μg/mL in RPMI 1640 medium) in 96-well plates. The plates were then incubated at 37 °C for 12–16 h. After incubation, the absorbance at 600 nm was measured, and the MIC was determined as the lowest concentration of the test sample in which no bacterial growth was detected in the well."}, "[6]": {"tested_on": "SA15772 (clinically isolated S. aureus)", "assay": "microbe, parasite or virus in culture", "assay_type": "cell-based, Staphylococcus aureus", "settings": "Staphylococcus aureus", "procedure": "as §3, §4"}, "S. aureus (ATCC6538)": {"tested_on": "S. aureus (ATCC6538)", "assay": "microbe, parasite or virus in culture", "assay_type": "cell-based, Staphylococcus aureus", "procedure": "as §3, §4"}, "[7]": {"tested_on": "MRSA22 (clinically isolated methicillin-resistant S. aureus)", "assay": "microbe, parasite or virus in culture", "assay_type": "cell-based, Staphylococcus aureus", "settings": "Staphylococcus aureus", "procedure": "as §3, §4"}, "[8]": {"tested_on": "MRSA-Z (clinically isolated methicillin-resistant S. aureus)", "assay": "microbe, parasite or virus in culture", "assay_type": "cell-based, Staphylococcus aureus", "settings": "Staphylococcus aureus, MRSA", "procedure": "as §3, §4"}, "[9]": {"tested_on": "MRSA11 (clinically isolated methicillin-resistant S. aureus)", "assay": "microbe, parasite or virus in culture", "assay_type": "cell-based, Staphylococcus aureus", "settings": "Staphylococcus aureus", "procedure": "as §3, §4"}, "FXa": {"target": "T1, FXa (Homo sapiens, UniProt P00742)", "T1 construct": "purchased Enzymeresearch, Lake Oswego, OR, USA", "T1 sequence (P00742 235-488 limits assumed)": "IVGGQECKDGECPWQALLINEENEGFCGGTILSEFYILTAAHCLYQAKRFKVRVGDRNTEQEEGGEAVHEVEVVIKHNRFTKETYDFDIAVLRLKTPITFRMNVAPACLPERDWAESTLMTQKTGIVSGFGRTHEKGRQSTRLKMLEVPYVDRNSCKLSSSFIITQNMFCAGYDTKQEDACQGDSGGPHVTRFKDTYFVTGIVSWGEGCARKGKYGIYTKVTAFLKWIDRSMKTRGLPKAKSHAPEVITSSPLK", "T1 sequence (P00742 41-179 partner limits assumed)": "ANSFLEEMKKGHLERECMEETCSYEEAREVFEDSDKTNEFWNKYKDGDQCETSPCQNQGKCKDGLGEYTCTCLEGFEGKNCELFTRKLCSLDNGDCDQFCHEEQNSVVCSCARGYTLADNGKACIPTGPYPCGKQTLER", "assay": "Enzymatic activity assay of coagulation factors, chromogenic substrate", "assay_type": "biochemical", "settings": "40, 200, 1000 nM, 10 min pre-incubation, substrate S-2222, 405 nm", "procedure": "(§5) The enzymatic activity of RK22 and LL-37 against coagulation factors was measured using the chromogenic substrate method. In brief, 5 μL of FXa (Enzymeresearch, Lake Oswego, OR, USA) (final concentration 3 μg/mL) or thrombin (Enzymeresearch, Lake Oswego, OR, USA) (final concentration 0.1056 μg/mL) and 5 μL of sample (final concentration 40, 200, and 1000 nM) were incubated for 10 min in 96-well plates, respectively. Following incubation, thrombin substrate (S-2238, Chromogenix, Milano, Italy, 45 μg/mL) or FXa substrate (S-2222, Chromogenix, Milano, Italy, 90 μg/mL) dissolved with 90 μL of enzyme dynamic buffer (100 mM NaCl, 50 mM Tris, 5 mM CaCl2, pH 8.0) were added and absorbance was measured at 405 nm every 1 min for 90 min."}, "thrombin": {"target": "T2, thrombin (Homo sapiens, UniProt P00734)", "T2 construct": "purchased Enzymeresearch, Lake Oswego, OR, USA", "assay": "Enzymatic activity assay of coagulation factors, chromogenic substrate", "assay_type": "biochemical", "settings": "40, 200, 1000 nM, 10 min pre-incubation, substrate S-2238, 405 nm", "procedure": "as §5"}, "washed platelets": {"tested_on": "washed platelets", "assay": "Platelet activity assay, flow cytometry", "assay_type": "cell-based", "settings": "mouse washed platelets, 20, 10, 5, 2.5 μg/mL, 10 min, P-selectin", "procedure": "Platelets were isolated from the mice as described in a previous study with minor modifications. The effect of RK22 and LL-37 on platelet activity was detected by flow cytometry. Mouse blood was mixed with Tyrode’s buffer A (137 mM NaCl, 2 mM KCl, 0.3 mM NaH2PO4, 12 mM NaHCO3, 5.5 mM glucose, 0.35% BSA, 1 mM MgCl2, and 0.2 mM EDTA, pH 6.5) and centrifuged (150× g, 10 min, room temperature) to obtain platelet-rich plasma (PRP), which was then pelleted (400× g, 5 min, room temperature), washed with Tyrode’s buffer A, and finally resuspended in Tyrode’s buffer B (137 mM NaCl, 2 mM KCl, 0.3 mM NaH2PO4, 12 mM NaHCO3, 5.5 mM glucose, 0.35% BSA and 2 mM CaCl2, pH 7.4). Antibodies against P-selectin (Biolegend, San Diego, CA, USA) were added to the platelets, followed by incubation for 10 min at room temperature. Samples (20, 10, 5, and 2.5 μg/mL) or normal saline were added, respectively, and analyzed by flow cytometry (BD, LSRFortessa^TM, Franklin Lakes, NJ, USA)."}, "[10]": {"settings": "P. aeruginosa ATCC9027 in Table 3"}}, "note": "Read-outs that look alike come from different tables or passages of the source. Residues, ends and D or L forms follow the SMILES beside them. No end group written: not given here.", "data": [{"compound": "CC(C)C[C@H](NC(=O)[C@@H](NC(=O)[C@@H](NC(=O)[C@H](CS)NC(=O)[C@@H](NC(=O)[C@H](CCCCN)NC(=O)[C@H](CCCCN)NC(=O)[C@H](CCCCN)NC(=O)[C@H](CCCCN)NC(=O)[C@@H]1CCCN1C(=O)[C@H](CCCCN)NC(=O)[C@@H]1CCCN1C(=O)[C@H](CCCCN)NC(=O)[C@@H]1CCCN1C(=O)[C@H](CS)NC(=O)[C@H](CC(C)C)NC(=O)[C@@H](NC(=O)[C@H](C)NC(=O)[C@@H](N)CCCNC(=N)N)C(C)C)C(C)C)C(C)C)C(C)C)C(=O)O", "note": "[RA19] (H-RAVLCPKPKPKKKKVCVVL-OH; N-terminus and C-terminus assumed)", "values": [{"measurement": "MIC", "setting": "P. aeruginosa, ATCC9027; P. aeruginosa ATCC27853 as printed in the text", "result": "exceeding 100 μg/mL"}, {"measurement": "MIC", "setting": "E. coli, ATCC25922; E. coli ATCC8739 as printed in the text", "result": "exceeding 100 μg/mL"}]}, {"compound": "CN[C@H](CC(C)C)C(=O)N[C@H]1C(=O)N[C@@H](CC(N)=O)C(=O)N[C@H]2C(=O)N[C@H]3C(=O)N[C@H](C(=O)N[C@H](C(=O)O)c4cc(O)cc(O)c4-c4cc3ccc4O)[C@H](O)c3ccc(c(Cl)c3)Oc3cc2cc(c3O[C@@H]2O[C@H](CO)[C@@H](O)[C@H](O)[C@H]2O[C@H]2C[C@](C)(N)[C@H](O)[C@H](C)O2)Oc2ccc(cc2Cl)[C@H]1O", "note": "[Vancomycin, vancomycin, reference compound]", "values": [{"measurement": "time to a kill rate of more than 90%", "setting": "S. aureus ATCC6538 [1]; S. aureus ATCC6538, 5 × MIC", "result": 6, "unit": "h"}, {"measurement": "time to a kill rate of more than 90%", "setting": "S. aureus ATCC6538 [1]; S. aureus ATCC6538, 10 × MIC", "result": 6, "unit": "h"}, {"measurement": "MRSA-Z inhibited / eradicated", "setting": "MRSA-Z [2]", "result": "about 80%"}, {"measurement": "infection-induced hemorrhage and inflammatory cell infiltration in the lung (H&E)", "setting": "S. aureus ATCC6538 [3]", "result": "significantly alleviated"}, {"measurement": "infection-induced tissue injury in the lung (H&E)", "setting": "MRSA-Z [4]", "result": "significantly alleviated"}, {"measurement": "MIC", "setting": "[5]", "result": 1.56, "unit": "µg/mL"}, {"measurement": "MIC", "setting": "[6]", "result": 1.56, "unit": "µg/mL"}, {"measurement": "MIC", "setting": "S. aureus (ATCC6538); Staphylococcus aureus", "result": 1.56, "unit": "µg/mL"}, {"measurement": "MIC", "setting": "[7]", "result": 1.56, "unit": "µg/mL"}, {"measurement": "MIC", "setting": "[8]", "result": 1.56, "unit": "µg/mL"}, {"measurement": "MIC", "setting": "[9]", "result": 1.56, "unit": "µg/mL"}]}, {"compound": "KSKSKKPSKSKPKKKKTSVVQQELQDVISFDFGC [KS34]", "values": [{"measurement": "MIC", "setting": "P. aeruginosa, ATCC9027; [10]", "result": ">100", "unit": "µg/mL"}, {"measurement": "MIC", "setting": "E. coli, ATCC25922; E. coli ATCC25922", "result": ">100", "unit": "µg/mL"}]}, {"compound": "KSSNTKAKKKKKNN [KS14]", "values": [{"measurement": "MIC", "setting": "P. aeruginosa, ATCC9027; [10]", "result": ">100", "unit": "µg/mL"}, {"measurement": "MIC", "setting": "S. aureus (ATCC6538)", "result": 50, "unit": "µg/mL"}, {"measurement": "MIC", "setting": "E. coli, ATCC25922; E. coli ATCC25922", "result": ">100", "unit": "µg/mL"}]}, {"compound": "KTRRRNRKHKKTINTETVQI [KT20]", "values": [{"measurement": "MIC", "setting": "P. aeruginosa, ATCC9027; [10]", "result": ">100", "unit": "µg/mL"}, {"measurement": "MIC", "setting": "S. aureus (ATCC6538)", "result": 50, "unit": "µg/mL"}, {"measurement": "MIC", "setting": "E. coli, ATCC25922; E. coli ATCC25922", "result": ">100", "unit": "µg/mL"}]}, {"compound": "LL-37", "values": [{"measurement": "effect on enzymatic activity of FXa", "setting": "FXa", "result": "significant potentiation activity"}, {"measurement": "effect on enzymatic activity of thrombin", "setting": "thrombin", "result": "significant potentiation activity"}, {"measurement": "platelet activation", "setting": "washed platelets", "result": "significant and dose-dependent effects on platelet activation"}]}, {"compound": "VFLICFSLISPASFENVRAKW [VF21]", "values": [{"measurement": "MIC", "setting": "P. aeruginosa, ATCC9027; [10]", "result": ">100", "unit": "µg/mL"}, {"measurement": "MIC", "setting": "E. coli, ATCC25922; E. coli ATCC25922", "result": ">100", "unit": "µg/mL"}]}]}
